The text below walks through data of US20040171824A1, “A Lac operator-repressor system” (priority 2001, published 2004).

Each structure is given as a SMILES string.

The conditions of data set [1]: cited from earlier work.
A short description of data set [2]: Tolerability of IPTG in the drinking water of Tyr^lacO, LacI double-transgenic mice. It counts as in vivo, mouse. On the procedure:
Tyrosinase activity was derepressed by replacing the drinking water with a 10 mM solution of IPTG (changed every four days). To allow for the normal pattern of tyrosinase expression during development, the female was started on 10 mM IPTG at day 7 of pregnancy.

Data set [3] concerns tyrosinase expression in Tyr^lacO, LacI double transgenic mice. Nature of the data set: IPTG derepression of tyrosinase expression (pigmentation) in Tyr^lacO, LacI double transgenic mice. It counts as in vivo, mouse. On the procedure:
The lac operator-repressor system of the present invention was tested in mice using a regulatable version of a well-characterized visible marker gene, tyrosinase. Tyrosinase is the protein product of the albino (c) locus (Kwon et al., PNAS 84, 7473-7477 (1987)), and is the enzyme that catalyzes the first step in melanin biosynthesis. The target transgene consists of the wildtype murine tyrosinase cDNA under the control of the murine tyrosinase promoter modified to contain lac operator sequences (See FIG. 2). The major transcription start site in the tyrosinase promoter is 83 bp upstream of the start codon. To maintain the endogenous spacing of promoter elements in the critical region between the start of transcription and the start of translation, a PCR-based, site-directed mutagenesis was used to change 25 bp of the endogenous sequence to create a primary lac operator centered at 59 bp upstream of the start of translation. Additional operators were inserted 176 bp and 526 bp upstream of the primary operator (FIG. 2). Mice containing this modified Tyrosinase transgene resemble pigmented animals previously described (Methot et al., nucleic Acids Research, 23, 4551-4556 (1995)) that had been microinjected with an unregulatable version of the same transgene. Two lines of pigmented Tyrosinase transgenic mice were established containing the regulatable transgene. […]

Data set [4] relates to mouse L-cells stably transfected with lacI expression vector. The note with it: MSV-CAT reporter with lac operators; cited from earlier work.
Data set [5] deals with tyrosinase expression in Tyr^lacO, LacI double transgenic embryos and pups. The experiment in a line: Transplacental IPTG regulation and reversibility of pigmentation in embryonic and newborn double transgenic mice. The format is in vivo, mouse. An excerpt:
To determine if lac elements could regulate pigmentation during embryogenesis and if IPTG could act transplacentally, the pigmentation in the developing retinal pigment epithelium of embryonic and newborn mice was investigated. At E9, tyrosinase activity in the embryonic eye of wild type mice begins to deposit pigment in the developing retinal pigment epithelium. At E12.5, the mouse RPE clearly is pigmented. Tyr^lacO (43) transgenic mice recapitulate this developmental event. A distinct band of pigmentation surrounding the central lens is seen in the Tyrosinase transgenic embryo that is not seen in the nontransgenic albino.
Finally, the reversibility of the system was tested by switching the Tyrosinase transgene on after it had been off, or off after it had been on, in the same animal. The phenotypes of eyes of newborn mice were compared to the phenotypes of embryonic eyes of mice of the same genotype. […] However, at E12.5, this double transgenic pup has the albino phenotype. […] Reversibility was also observed with regards to switching off the tyrosinase gene after it had intially been on. […] As expected, the eyes remain pigmented due to the low turnover of cells and melanosomes in the RPE.
For embryonic eyes, pregnant females were euthanized at E12.5, and the embryos removed. The head of each embryo was fixed in 2% paraformaldehyde in 0.1 M phosphate (pH 7.4), and the lower half was taken for genotyping. Tyrosinase activity was derepressed by replacing the drinking water with a 10 mM solution of IPTG (changed every four days). To allow for the normal pattern of tyrosinase expression during development, the female was started on 10 mM IPTG at day 7 of pregnancy.

On to `CC(C)S[C@@H]1O[C@H](CO)[C@H](O)[C@H](O)[C@H]1O` [IPTG, isopropyl-β-D-thiogalactoside], for which, in data set [1] (adult animal, spleen, liver, lung, kidney, brain, adipose tissue), the tissue distribution entry is “widespread”. For the same molecule, in data set [1] (average), the “nuclear uptake of inducer, of the total cell uptake” value was 18%. Besides, in data set [1] (in vivo), the “clearance from the blood” value is “rapidly cleared from the blood”, the “metabolism in the animal” value is “not metabolized”, the “relative concentration of inducer to repressor molecules versus that required for maximal induction in E. coli” value is listed as around 1000 fold and the “time functionally active after introduction into the bloodstream” value is “at least 4 hours”. Also, the “time to reach high levels in cells of tissues” value in data set [1] (uptake by facilitated transport into tissues of the animal) was 2 to 4 h. The “deleterious effects on long-term administration” value in data set [2] (10 mM IPTG in drinking water for up to 8 months) was “no deleterious effects”. In addition, in data set [2] (IPTG in the drinking water), the “toxicity of the circulating level that derepresses target gene expression” value is recorded as “completely nontoxic”. The “tyrosinase expression / coat phenotype” value in data set [3] (double transgenic animal, 10 mM IPTG in the drinking water) is on record as “derepressed tyrosinase expression”. The “pigmentation in the retinal pigment epithelium (RPE)” value in data set [3] (double transgenic mouse treated with IPTG, eye sections) is listed as “restoration of pigmentation in the RPE to levels indistinguishable from the nonrepressed state”. For the same molecule, the CAT activity entry in data set [4] is recorded as “marked de-repression of CAT activity”. Also, the “pigmentation of the embryonic RPE” value in data set [5] (double-transgenic embryo at E12.5, mother on 10 mM IPTG in drinking water during pregnancy) is given as “not when the mother was treated with IPTG during pregnancy”. Also, the placental transfer entry in data set [5] (mother given IPTG in drinking water) is “can cross the placenta”. Further, the “switching tyrosinase expression on after a period of silencing (eye pigmentation at birth)” value in data set [5] (mother started on IPTG at E12.5 of pregnancy) is recorded as “able to switch tyrosinase expression on”. The “coat phenotype after removal of IPTG” value in data set [5] (pup's mother taken off IPTG at P9) is “reversion of the coat phenotype to albino”.
